Columns and labels:
Assay in all cases: relative viability (nuclei count vs DMSO), 5 days (fraction); higher = more cells survive
[1] = compound: CCn1c(-c2nonc2N)nc2cnc(Oc3cccc(NC(=O)c4ccc(OCCN5CCOCC5)cc4)c3)cc21 + Cc1nc(Nc2ncc(C(=O)Nc3c(C)cccc3Cl)s2)cc(N2CCN(CCO)CC2)n1 [Dasatinib] (partner 0.075 µM)
Summary of the method: (§1)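 The day after seeding in 1536-well plates, lung cancer cell lines were treated by pin tool with a single drug, or with a fixed anchor-drug dose together with five library-drug doses (not always all listed) in √10 steps. After 5 days, a combined fix-and-stain solution (final 0.05% Triton X-100, 1% formaldehyde, 1 ug/ml Hoechst) was added. Nuclei counted on 4× images gave relative viability as treated counts over vehicle counts, reported as the median of duplicate plates.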

Mirin + Trametinib = compound: N=C1NC(=O)/C(=C/c2ccc(O)cc2)S1 [Mirin] + CC(=O)Nc1cccc(-n2c(=O)n(C3CC3)c(=O)c3c(Nc4ccc(I)cc4F)n(C)c(=O)c(C)c32)c1 [Trametinib] (partner 0.02 µM)
Summary of the method: as §1

Mirin + Tozasertib = compound: N=C1NC(=O)/C(=C/c2ccc(O)cc2)S1 [Mirin] + Cc1cc(Nc2cc(N3CCN(C)CC3)nc(Sc3ccc(NC(=O)C4CC4)cc3)n2)n[nH]1 [Tozasertib] (partner 0.1 µM)
Summary of the method: as §1

Mirin + Vorinostat = compound: N=C1NC(=O)/C(=C/c2ccc(O)cc2)S1 [Mirin] + O=C(CCCCCCC(=O)Nc1ccccc1)NO [Vorinostat] (partner 1 µM)
Summary of the method: as §1

Which relative viability ([1]; first compound 0.04 µM) does the source give for UMC-11 here?
Its relative viability is 0.37.

What about the relative viability ([1]; first compound 0.1265 µM) of the same cell line?
The relative viability was 0.415.

And the relative viability ([1]; first compound 0.4 µM)?
Its relative viability is 0.337.

What about the relative viability ([1]; first compound 1.265 µM) of the same cell line?
Its relative viability is 0.214.

What about the relative viability ([1]; first compound 4 µM) of the same cell line?
The relative viability was 0.182.

What about the relative viability (Mirin + Trametinib; first compound 0.25 µM) of the same cell line?
The relative viability was 0.721.

What about the relative viability (Mirin + Trametinib; first compound 0.7906 µM) of the same cell line?
The relative viability was 0.381.

And the relative viability (Mirin + Trametinib; first compound 2.5 µM)?
The relative viability was 0.778.

What about the relative viability (Mirin + Trametinib; first compound 7.906 µM) of the same cell line?
Its relative viability is 0.558.

And the relative viability (Mirin + Trametinib; first compound 25 µM)?
The relative viability was 0.496.

And the relative viability (Mirin + Tozasertib; first compound 0.25 µM)?
Its relative viability is 0.196.

What about the relative viability (Mirin + Tozasertib; first compound 2.5 µM) of the same cell line?
The relative viability was 0.203.

What about the relative viability (Mirin + Tozasertib; first compound 7.906 µM) of the same cell line?
The relative viability was 0.181.

What about the relative viability (Mirin + Tozasertib; first compound 25 µM) of the same cell line?
The relative viability was 0.189.

What about the relative viability (Mirin + Vorinostat; first compound 0.25 µM) of the same cell line?
The relative viability was 0.411.

What about the relative viability (Mirin + Vorinostat; first compound 0.7906 µM) of the same cell line?
Its relative viability is 0.362.

What about the relative viability (Mirin + Vorinostat; first compound 2.5 µM) of the same cell line?
Its relative viability is 0.399.

What about the relative viability (Mirin + Vorinostat; first compound 7.906 µM) of the same cell line?
Its relative viability is 0.305.

And the relative viability (Mirin + Vorinostat; first compound 25 µM)?
The relative viability was 0.266.

Source: the supplement of paper PMC10307832
